This is an account of results in patent publication US12509452B2, “Substituted-isoxazoline-containing aromatic compound, preparation method therefor, herbicidal composition and use thereof” (QINGDAO KINGAGROOT CHEMICAL COMPOUND CO., LTD., priority 2019, dated 2025).

Holding throughout (format): in vivo
In test [1] the test system is Beckmannia syzigachne. Briefly: weeding effect in post-emergence stage. In a few lines: (§1)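 Read-out is fresh weight growth control rate, binned into levels 0-5 (Level 5 above 85%, Level 0 below 5%), recorded 3 weeks after spraying and averaged over three repeats. Plants were treated at the 2-3 leaf stage with 7.5-500 g a.i./ha plus methyl oleate synergist.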
Test [2] relates to Alopecurus japonicus. Briefly: weeding effect in post-emergence stage. In short, it runs like this:
as §1

For test [3], the system named is Conyza japonica. As to the kind of experiment: weeding effect in post-emergence stage. In short, it runs like this:
as §1

Test [4] relates to Rorippa indica. As to the kind of experiment: weeding effect in post-emergence stage. In short, it runs like this: as §1
For test [5], the system named is Echinochloa crusgalli, Scirpus juncoides and Bidens tripartita L. collected from Heilongjiang Province of China. Briefly: resistance tests of the collected rice field weeds. As to conditions: seeds collected from Heilongjiang Province of China. The text has this: Note: The seeds of Echinochloa crusgalli, Scirpus juncoides and Bidens tripartita L. were collected from Heilongjiang Province of China.

Take `Cn1c(=S)n(C)c(=O)n(-c2cc(C3=NOC(C)(C(=O)OCCCF)C3)c(Cl)cc2F)c1=O` (stereo not shown) [Compound 1-88]: the “weeding effect in post-emergence stage, Beckmannia syzigachne (activity level)” value in test [1] (dose 15 g a.i./ha) is 5 (Level 5: growth control rate is above 85%). Besides, in test [2] (dose 15 g a.i./ha), the “weeding effect in post-emergence stage, Alopecurus japonicus (activity level)” value is 5 (Level 5: growth control rate is above 85%). In addition, the “weeding effect in post-emergence stage, Conyza japonica (activity level)” value in test [3] (dose 15 g a.i./ha) is 5 (Level 5: growth control rate is above 85%). Further, the “weeding effect in post-emergence stage, Rorippa indica (activity level)” value (“weeding effect … Rorippa indica (activity level)” for short) in test [4] (dose 15 g a.i./ha) is on record as 5 (Level 5: growth control rate is above 85%).
In the case of `Cn1c(=S)n(C)c(=O)n(-c2cc(C3=NOC(C)(C(=O)OCC(C)(F)F)C3)c(Cl)cc2F)c1=O` (stereo not shown) [Compound 1-89], the “weeding effect in post-emergence stage, Beckmannia syzigachne (activity level)” value in test [1] (dose 15 g a.i./ha) is listed as 5 (Level 5: growth control rate is above 85%). The “weeding effect in post-emergence stage, Alopecurus japonicus (activity level)” value in test [2] (dose 15 g a.i./ha) was 5 (Level 5: growth control rate is above 85%). For the same compound, the “weeding effect in post-emergence stage, Conyza japonica (activity level)” value in test [3] (dose 15 g a.i./ha) is on record as 5 (Level 5: growth control rate is above 85%). In test [4] (dose 15 g a.i./ha), the “weeding effect … Rorippa indica (activity level)” value is given as 5 (Level 5: growth control rate is above 85%).
Regarding `Cn1c(=S)n(C)c(=O)n(-c2cc(C3=NOC(C)(C(=O)OCCC(F)(F)F)C3)c(Cl)cc2F)c1=O` (stereo not shown) [Compound 1-90], in test [1] (dose 15 g a.i./ha), the “weeding effect in post-emergence stage, Beckmannia syzigachne (activity level)” value is reported as 5 (Level 5: growth control rate is above 85%). In test [2] (dose 15 g a.i./ha), the “weeding effect in post-emergence stage, Alopecurus japonicus (activity level)” value is listed as 5 (Level 5: growth control rate is above 85%). For the same compound, the “weeding effect in post-emergence stage, Conyza japonica (activity level)” value in test [3] (dose 15 g a.i./ha) was 5 (Level 5: growth control rate is above 85%). In test [4] (dose 15 g a.i./ha), the “weeding effect … Rorippa indica (activity level)” value is 5 (Level 5: growth control rate is above 85%).
Regarding `Cn1c(=S)n(C)c(=O)n(-c2cc(C3=NOC(C)(C(=O)OCC=CCl)C3)c(Cl)cc2F)c1=O` (stereo not shown) [Compound 1-92], the “weeding effect in post-emergence stage, Beckmannia syzigachne (activity level)” value in test [1] (dose 15 g a.i./ha) was 5 (Level 5: growth control rate is above 85%). Besides, the “weeding effect in post-emergence stage, Alopecurus japonicus (activity level)” value in test [2] (dose 15 g a.i./ha) is listed as 5 (Level 5: growth control rate is above 85%). In addition, in test [3] (dose 15 g a.i./ha), the “weeding effect in post-emergence stage, Conyza japonica (activity level)” value is 5 (Level 5: growth control rate is above 85%). The “weeding effect … Rorippa indica (activity level)” value in test [4] (dose 15 g a.i./ha) was 5 (Level 5: growth control rate is above 85%).
Regarding `CCOC(=O)CCC1(C)CC(c2cc(-n3c(=O)n(C)c(=S)n(C)c3=O)c(F)cc2Cl)=NO1` (stereo not shown) [Compound 1-94], the “weeding effect in post-emergence stage, Beckmannia syzigachne (activity level)” value in test [1] (dose 15 g a.i./ha) is recorded as 5 (Level 5: growth control rate is above 85%). The “weeding effect in post-emergence stage, Alopecurus japonicus (activity level)” value in test [2] (dose 15 g a.i./ha) was 5 (Level 5: growth control rate is above 85%). Also, in test [3] (dose 15 g a.i./ha), the “weeding effect in post-emergence stage, Conyza japonica (activity level)” value is listed as 5 (Level 5: growth control rate is above 85%). The “weeding effect … Rorippa indica (activity level)” value in test [4] (dose 15 g a.i./ha) is recorded as 5 (Level 5: growth control rate is above 85%).
Turning to `CCOC(=O)CCCC1(C)CC(c2cc(-n3c(=O)n(C)c(=S)n(C)c3=O)c(F)cc2Cl)=NO1` (stereo not shown) [Compound 1-96], the “weeding effect in post-emergence stage, Beckmannia syzigachne (activity level)” value in test [1] (dose 15 g a.i./ha) was 5 (Level 5: growth control rate is above 85%). Moreover, the “weeding effect in post-emergence stage, Alopecurus japonicus (activity level)” value in test [2] (dose 15 g a.i./ha) is 5 (Level 5: growth control rate is above 85%). For the same compound, in test [3] (dose 15 g a.i./ha), the “weeding effect in post-emergence stage, Conyza japonica (activity level)” value is reported as 5 (Level 5: growth control rate is above 85%). Further, in test [4] (dose 15 g a.i./ha), the “weeding effect … Rorippa indica (activity level)” value was 5 (Level 5: growth control rate is above 85%).
With `CCOC(=O)C1ON=C(c2cc(-n3c(=O)n(C)c(=S)n(C)c3=O)c(F)cc2Cl)C1C` (stereo not shown) [Compound 1-98], the “weeding effect in post-emergence stage, Beckmannia syzigachne (activity level)” value in test [1] (dose 15 g a.i./ha) was 5 (Level 5: growth control rate is above 85%). For the same compound, the “weeding effect in post-emergence stage, Alopecurus japonicus (activity level)” value in test [2] (dose 15 g a.i./ha) is 5 (Level 5: growth control rate is above 85%). Besides, in test [3] (dose 15 g a.i./ha), the “weeding effect in post-emergence stage, Conyza japonica (activity level)” value was 5 (Level 5: growth control rate is above 85%). Besides, in test [4] (dose 15 g a.i./ha), the “weeding effect … Rorippa indica (activity level)” value is recorded as 5 (Level 5: growth control rate is above 85%).
With `CCOC(=O)C1ON=C(c2cc(-n3c(=O)n(C)c(=S)n(C)c3=O)c(F)cc2Cl)C1C(F)(F)F` (stereo not shown) [Compound 1-99], in test [1] (dose 15 g a.i./ha), the “weeding effect in post-emergence stage, Beckmannia syzigachne (activity level)” value was 5 (Level 5: growth control rate is above 85%). Besides, in test [2] (dose 15 g a.i./ha), the “weeding effect in post-emergence stage, Alopecurus japonicus (activity level)” value is reported as 5 (Level 5: growth control rate is above 85%). Besides, in test [3] (dose 15 g a.i./ha), the “weeding effect in post-emergence stage, Conyza japonica (activity level)” value is on record as 5 (Level 5: growth control rate is above 85%). Further, the “weeding effect … Rorippa indica (activity level)” value in test [4] (dose 15 g a.i./ha) is recorded as 5 (Level 5: growth control rate is above 85%).
Consider `CCOC(=O)C1ON=C(c2cc(-n3c(=O)n(C)c(=S)n(C)c3=O)c(F)cc2Cl)C1C(=O)OCC` (stereo not shown) [Compound 1-100], for which the “weeding effect in post-emergence stage, Beckmannia syzigachne (activity level)” value in test [1] (dose 15 g a.i./ha) is on record as 5 (Level 5: growth control rate is above 85%). In test [2] (dose 15 g a.i./ha), the “weeding effect in post-emergence stage, Alopecurus japonicus (activity level)” value is given as 5 (Level 5: growth control rate is above 85%). The “weeding effect in post-emergence stage, Conyza japonica (activity level)” value in test [3] (dose 15 g a.i./ha) is 5 (Level 5: growth control rate is above 85%). For the same compound, the “weeding effect … Rorippa indica (activity level)” value in test [4] (dose 15 g a.i./ha) is 5 (Level 5: growth control rate is above 85%).
Take `CCOC(=O)C1(C)ON=C(c2cc(-n3c(=O)n(C)c(=S)n(C)c3=O)c(F)cc2Cl)C1C` (stereo not shown) [Compound 1-101]: in test [1] (dose 15 g a.i./ha), the “weeding effect in post-emergence stage, Beckmannia syzigachne (activity level)” value is 5 (Level 5: growth control rate is above 85%). The “weeding effect in post-emergence stage, Alopecurus japonicus (activity level)” value in test [2] (dose 15 g a.i./ha) is 5 (Level 5: growth control rate is above 85%). Besides, the “weeding effect in post-emergence stage, Conyza japonica (activity level)” value in test [3] (dose 15 g a.i./ha) was 5 (Level 5: growth control rate is above 85%). For the same compound, the “weeding effect … Rorippa indica (activity level)” value in test [4] (dose 15 g a.i./ha) is given as 5 (Level 5: growth control rate is above 85%).
As to `CCOC(=O)C1(C)CC(c2cc(-n3c(=O)n(C)c(=S)n(C)c3=O)c(F)cc2Cl)=NO1` (stereo not shown) [Control compound A, reference compound], the “weeding effect in post-emergence stage, Beckmannia syzigachne (activity level)” value in test [1] (dose 15 g a.i./ha) is 2 (Level 2: growth control rate is greater than or equal to 20% and less than 40%). The “weeding effect in post-emergence stage, Alopecurus japonicus (activity level)” value in test [2] (dose 15 g a.i./ha) is 3 (Level 3: growth control rate is greater than or equal to 40% and less than 60%). Moreover, in test [3] (dose 15 g a.i./ha), the “weeding effect in post-emergence stage, Conyza japonica (activity level)” value is 2 (Level 2: growth control rate is greater than or equal to 20% and less than 40%). For the same compound, the “weeding effect … Rorippa indica (activity level)” value in test [4] (dose 15 g a.i./ha) was 2 (Level 2: growth control rate is greater than or equal to 20% and less than 40%).
Take `CCOC(=O)C1(C)CC(c2cc(-n3c(=O)cc(C(F)(F)F)n(C)c3=O)c(F)cc2Cl)=NO1` (stereo not shown) [Control compound B, reference compound]: the “weeding effect in post-emergence stage, Beckmannia syzigachne (activity level)” value in test [1] (dose 7.5 g a.i./ha) is 2 (Level 2: growth control rate is greater than or equal to 20% and less than 40%); in test [1] (dose 15 g a.i./ha), 3 (Level 3: growth control rate is greater than or equal to 40% and less than 60%). Besides, the “weeding effect in post-emergence stage, Alopecurus japonicus (activity level)” value is 3 (Level 3: growth control rate is greater than or equal to 40% and less than 60%) in test [2] (dose 7.5 g a.i./ha); 4 (Level 4: growth control rate is greater than or equal to 60% and less than 85%) in test [2] (dose 15 g a.i./ha). For the same compound, the “weeding effect in post-emergence stage, Conyza japonica (activity level)” value in test [3] (dose 7.5 g a.i./ha) was 3 (Level 3: growth control rate is greater than or equal to 40% and less than 60%); in test [3] (dose 15 g a.i./ha), 4 (Level 4: growth control rate is greater than or equal to 60% and less than 85%). Besides, the “weeding effect … Rorippa indica (activity level)” value in test [4] (dose 7.5 g a.i./ha) was 2 (Level 2: growth control rate is greater than or equal to 20% and less than 40%); in test [4] (dose 15 g a.i./ha), 3 (Level 3: growth control rate is greater than or equal to 40% and less than 60%).
As for `CCOC(=O)c1cnn(C)c1S(=O)(=O)NC(=O)Nc1nc(OC)cc(OC)n1` [Pyrazosulfuron-ethyl], in test [5], the “response of the weeds to the common doses” value is recorded as “resistant”.
As to `CCOC(=O)C1(C)CC(c2cc(-n3c(=O)cc(C(F)(F)F)n(C)c3=O)c(F)cc2Cl)=NO1` (stereo not shown) [drawing 745, reference compound], the “weeding effect in post-emergence stage, Beckmannia syzigachne (activity level)” value in test [1] (dose 15 g a.i./ha) was 1 (Level 1: growth control rate is greater than or equal to 5% and less than 20%). In addition, in test [2] (dose 15 g a.i./ha), the “weeding effect in post-emergence stage, Alopecurus japonicus (activity level)” value is 2 (Level 2: growth control rate is greater than or equal to 20% and less than 40%). In addition, the “weeding effect in post-emergence stage, Conyza japonica (activity level)” value in test [3] (dose 15 g a.i./ha) was 1 (Level 1: growth control rate is greater than or equal to 5% and less than 20%). Further, the “weeding effect … Rorippa indica (activity level)” value in test [4] (dose 15 g a.i./ha) is 1 (Level 1: growth control rate is greater than or equal to 5% and less than 20%).
With `CCOC(=O)C1(C)CC(c2cc(-n3c(=O)n(C)c(=S)n(C)c3=O)c(F)cc2Cl)=NO1` (stereo not shown) [drawing 746, reference compound], the “weeding effect in post-emergence stage, Beckmannia syzigachne (activity level)” value in test [1] (dose 15 g a.i./ha) was 1 (Level 1: growth control rate is greater than or equal to 5% and less than 20%). For the same compound, in test [2] (dose 15 g a.i./ha), the “weeding effect in post-emergence stage, Alopecurus japonicus (activity level)” value was 2 (Level 2: growth control rate is greater than or equal to 20% and less than 40%). For the same compound, in test [3] (dose 15 g a.i./ha), the “weeding effect in post-emergence stage, Conyza japonica (activity level)” value was 1 (Level 1: growth control rate is greater than or equal to 5% and less than 20%). Besides, the “weeding effect … Rorippa indica (activity level)” value in test [4] (dose 15 g a.i./ha) is 1 (Level 1: growth control rate is greater than or equal to 5% and less than 20%).
